{"source": "patent US20230011869A1", "about": "(Hoffmann-La Roche Inc., priority 2018, published 2023)", "note": "Structures can show the parent of a compound that is named as a salt."}
{"test_system": "Acinetobacter baumannii ATCC17978", "assay": "Antimicrobial susceptibility testing: 90% growth inhibitory concentration (IC90) determination, Iso-Sensitest broth", "assay_type": "cell-based", "conditions": "90% growth inhibitory concentration, Acinetobacter baumannii ATCC17978, Iso-Sensitest broth, OD 600 nm over 16 h; read-out: ATCC17978 IC90", "procedure,_shortened": "(§1)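 A. baumannii ATCC17978 grown in Iso-Sensitest broth across 10 compound concentrations at 35±2 °C.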", "units": {"IC90": "nM"}}
{"smiles": "Cc1cc(Nc2nccn3c(-c4ccc(OCC#CCO)c(F)c4)cnc23)ccc1C(=O)N1CCC(CN)CC1", "note": "[Example 387, [4-(aminomethyl)piperidin-1-yl]-[4-[[3-[3-fluoro-4-(4-hydroxybut-2-ynoxy)phenyl]imidazo[1,2-a]pyrazin-8-yl]amino]-2-methylphenyl]methanone; for-mic acid]", "IC90": 240}
{"smiles": "Cc1cc(Nc2nccn3c(-c4ccc(OCC5CC5)c(F)c4)cnc23)ccc1C(=O)N1CCC(CN)CC1", "note": "[Example 118, (4-(aminomethyl)piperidin-1-yl)(4-((3-(4-(cyclopropylmethoxy)-3-fluorophenyl)imidazo[1,2-a]pyrazin-8-yl)amino)-2-methylphenyl)methanone]", "IC90": 940}
{"smiles": "Cc1cc(Nc2nccn3c(-c4ccc(OC(F)F)cc4)cnc23)ccc1C(=O)N1CCN(C(=N)N)CC1", "note": "[Example 69]", "IC90": 110}
{"smiles": "Cc1cc(Nc2nccn3c(-c4ccc(Oc5ccccn5)c(F)c4F)cnc23)ccc1C(=O)N1CCC(CN)CC1", "note": "[Example 122, [4-(aminomethyl)-1-piperidyl]-[4-[[3-[2,3-difluoro-4-(2-pyridyloxy)phenyl]imidazo[1,2-a]pyrazin-8-yl]amino]-2-methyl-phenyl]methanone formate]", "IC90": 320}
{"smiles": "COc1ccc(-c2cnc3c(Nc4ccc(C(=O)N5CCN(C(=O)N6CCO[C@H](CN)C6)CC5)c(C)c4)nccn23)c(Cl)c1F", "note": "[Example 167, [4-[(2R)-2-(aminomethyl)morpholine-4-carbonyl]piperazin-1-yl]-[4-[[3-(2-chloro-3-fluoro-4-methoxy-phenyl)imidazo[1,2-a]pyrazin-8-yl]amino]-2-methyl-phenyl]methanone formate]", "IC90": 220}
{"smiles": "Cc1cc(Nc2nccn3c(-c4ccc(OC(F)F)cc4)cnc23)ccc1C(=O)N1CCCC(C(N)=O)C1", "note": "(stereo not shown) [Example 10, 1-(4-((3-(4-(difluoromethoxy)phenyl)imidazo[1,2-a]pyrazin-8-yl)amino)-2-methylbenzoyl)piperidine-3-carboxamide]", "IC90": 1600}
{"smiles": "CC[C@]1(O)CN[C@H](C(=O)N2CCN(C(=O)c3ccc(Nc4nccn5c(-c6ccc(OCC#N)c(F)c6F)cnc45)cc3C)CC2)C1", "note": "[Example 232, 2-[4-[8-[4-[4-[(2S,4R)-4-ethyl-4-hydroxy-pyrrolidine-2-carbonyl]piperazine-1-carbonyl]-3-methyl-anilino]imidazo[1,2-a]pyrazin-3-yl]-2,3-difluoro-phenoxy]acetonitrile formate]", "IC90": 83}
{"smiles": "Cc1cc(Nc2nccn3c(-c4ccc(OCC#N)c(F)c4F)cnc23)ccc1C(=O)N1CCN(C(=O)[C@@H]2CCNC[C@@H]2O)CC1", "note": "(relative stereo) [Example 196, 2-[2,3-difluoro-4-[8-[3-methyl-4-[4-[rac-(3R,4R)-3-hydroxypiperidine-4-carbonyl]piperazine-1-carbonyl]anilino]imidazo [1,2-a]pyrazin-3-yl]phenoxy] acetonitrile formate]", "IC90": 270}
{"smiles": "CNCC(=O)N1CCN(C(=O)c2ccc(Nc3nccn4c(-c5ccc(OC)c(F)c5Cl)cnc34)cc2C)CC1", "note": "[Example 307, 1-[4-[4-[[3-(2-chloro-3-fluoro-4-methoxyphenyl)imidazo[1,2-a]pyrazin-8-yl]amino]-2-methylbenzoyl]piperazin-1-yl]-2-(methylamino)ethanone; hy-drochloride]", "IC90": 97}
{"test_system": "Acinetobacter baumannii ATCC17978", "assay": "Antimicrobial susceptibility testing: 90% growth inhibitory concentration (IC90) determination, Iso-Sensitest broth", "assay_type": "cell-based", "conditions": "Acinetobacter baumannii, ATCC17978, 16 h, read-out: ATCC17978 IC90, 90% growth inhibitory concentration, Acinetobacter baumannii ATCC17978, Iso-Sensitest broth, OD 600 nm over 16 h", "procedure,_shortened": "as §1", "units": {"IC90": "nM"}}
{"smiles": "Cc1cc(Nc2nccn3c(-c4ccc(OC(F)F)cc4)cnc23)ccc1C(=O)N1CCC(N2CCNCC2)CC1", "note": "[Example 45, (4-((3-(4-(difluoromethoxy)phenyl)imidazo[1,2-a]pyrazin-8-yl)amino)-2-methylphenyl)(4-(piperazin-1-yl)piperidin-1-yl)methanone hydrochloride]", "IC90": 190}
{"smiles": "Cc1cc(Nc2nccn3c(-c4ccc(OC(F)F)cc4)cnc23)ccc1C(=O)N1CCC(N(C)CCN(C)C)CC1", "note": "[Example 301, [4-[[3-[4-(difluoromethoxy)phenyl]imi-dazo[1,2-a]pyrazin-8-yl]amino]-2-methylphenyl]-[4-[2-(dimethylamino)ethyl-methylamino]piperidin-1-yl]methanone]", "IC90": 720}
{"smiles": "CCc1cc(Nc2nccn3c(-c4ccc(OC(C)C#N)c(F)c4F)cnc23)ccc1C(=O)N1CCN(CCN(C)C)CC1", "note": "(stereo not shown) [Example 557, 2-(4-(8-((4-(4-(2-(dimethylamino)ethyl)piperazine-1-carbonyl)-3-ethylphenyl)amino)imidazo[1,2-a]pyrazin-3-yl)-2,3-difluorophenoxy)propanenitrile]", "IC90": 694}
{"smiles": "Cc1cc(Nc2nccn3c(-c4ccc(OC(F)F)cc4)cnc23)ccc1C(=O)N1CCN(C(=O)C2=CCNCC2)CC1", "note": "[Example 447, [4-[[3-[4-(difluoromethoxy)phenyl]imi-dazo[1,2-a]pyrazin-8-yl]amino]-2-methylphenyl]-[4-(1,2,3,6-tetrahydropyridine-4-carbonyl)piperazin-1-yl]methanone; hydrochloride]", "IC90": 2000}
{"smiles": "Cc1cc(Nc2nccn3c(-c4ccc(OC(F)F)cc4)cnc23)ccc1C(=O)N1CCC(C(=O)N(C)CCO)CC1", "note": "[Example 409, 1-[4-[[3-[4-(difluoromethoxy)phenyl]imi-dazo[1,2-a]pyrazin-8-yl]amino]-2-methylbenzoyl]-N-(2-hydroxyethyl)-N-methylpiperidine-4-carboxamide]", "IC90": 580}
{"smiles": "Cc1cc(Nc2nccn3c(-c4ccc(OC(F)F)cc4)cnc23)ccc1C(=O)N1CCC(c2nccn2C)CC1", "note": "[Example 356, [4-[[3-[4-(difluoromethoxy)phenyl]imi-dazo[1,2-a]pyrazin-8-yl]amino]-2-methylphenyl]-[4-(1-methylimidazol-2-yl)piperidin-1-yl]methanone]", "IC90": 300}
{"smiles": "Cc1cc(Nc2nccn3c(-c4ccc(OC(F)F)cc4)cnc23)ccc1C(=O)N1CCN(C(=O)[C@H]2C[C@H](O)CN2)CC1", "note": "[Example 529, [4-[[3-[4-(difluoromethoxy)phenyl]imi-dazo[1,2-a]pyrazin-8-yl]amino]-2-methylphenyl]-[4-[(2R,4S)-4-hydroxypyrrolidine-2-carbonyl]piperazin-1-yl]methanone; hydrochloride]", "IC90": 690}
{"smiles": "CCN1CCN(C2CCN(C(=O)c3ccc(Nc4nccn5c(-c6ccc(OC(F)F)cc6)cnc45)cc3C)CC2)CC1", "note": "[Example 367, [4-[[3-[4-(difluoromethoxy)phenyl]imi-dazo[1,2-a]pyrazin-8-yl]amino]-2-methylphenyl]-[4-(4-ethylpiperazin-1-yl)piperidin-1-yl]methanone]", "IC90": 690}
{"smiles": "Cc1cc(Nc2nccn3c(-c4ccc(OC(F)F)cc4)cnc23)ccc1C(=O)N1CCC(C(=O)N(C)C[C@H](O)[C@@H](O)[C@@H](O)[C@H](O)CO)CC1", "note": "[Example 268, 1-[4-[[3-[4-(difluoromethoxy)phenyl]imi-dazo[1,2-a]pyrazin-8-yl]amino]-2-methylbenzoyl]-N-methyl-N-[(2S,3R,4S,5R)-2,3,4,5,6-pentahydroxyhexyl]piperidine-4-carboxamide]", "IC90": 1500}
{"smiles": "Cc1cc(Nc2nccn3c(-c4ccc(OC(F)F)cc4)cnc23)ccc1C(=O)N1CCC(C(=O)NC[C@H](O)CN)CC1", "note": "[Example 553, (R)-N-(3-amino-2-hydroxypropyl)-1-(4-((3-(4-(difluoromethoxy)phenyl)imidazo [1,2-a]pyrazin-8-yl)amino)-2-methylbenzoyl)piperidine-4-carboxamide formate]", "IC90": 227}
